Data taken from US20220338471A1, “HONEY BEE-SAFE ACARICIDAL COMPOUNDS” (Kansas State University Research Foundation, priority 2019, published 2022).
“And” between values parts separate entries of the source, which are not always exact repeats. Identical values can stand only once. Like-named read-outs stand apart in the source and are kept apart here. Square brackets hold non-standard residues; d marks the D form. Peptide text beside a SMILES is read from it. Phe(4-Cl) = N[C@@H](Cc1ccc(Cl)cc1)C(=O)O; Phe(4-F) = N[C@@H](Cc1ccc(F)cc1)C(=O)O; Hyp = O=C(O)[C@@H]1C[C@@H](O)CN1; β3hF = N[C@H](CC(=O)O)Cc1ccccc1; β3hL = CC(C)C[C@H](N)CC(=O)O; β3hP = O=C(O)C[C@@H]1CCCN1; Aib = CC(C)(N)C(=O)O

Molecular target: T1, varroa mite proctolin receptor (VdProctR) (Varroa destructor, UniProt A0A7T1TE40)
T1 sequence (A0A7T1TE40 1-530): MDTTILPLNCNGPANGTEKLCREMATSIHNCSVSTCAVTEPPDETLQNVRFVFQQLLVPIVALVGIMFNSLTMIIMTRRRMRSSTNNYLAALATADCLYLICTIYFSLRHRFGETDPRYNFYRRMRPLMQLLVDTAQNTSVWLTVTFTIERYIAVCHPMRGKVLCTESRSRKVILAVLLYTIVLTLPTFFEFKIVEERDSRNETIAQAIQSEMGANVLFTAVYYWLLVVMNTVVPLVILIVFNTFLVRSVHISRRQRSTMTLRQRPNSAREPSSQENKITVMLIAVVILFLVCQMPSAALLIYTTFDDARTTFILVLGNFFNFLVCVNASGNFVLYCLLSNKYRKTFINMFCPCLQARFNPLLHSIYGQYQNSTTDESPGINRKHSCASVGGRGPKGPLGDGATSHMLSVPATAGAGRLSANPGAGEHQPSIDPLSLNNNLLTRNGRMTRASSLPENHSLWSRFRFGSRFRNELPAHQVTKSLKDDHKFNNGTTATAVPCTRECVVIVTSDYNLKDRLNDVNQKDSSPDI
Assay: Receptor activity assay: luminescence in cells transiently transfected with varroa mite proctolin receptor
Assay type: cell-based
Settings: for EC50: varroa mite proctolin receptor; for Activity at high concentrations compared with proctolin: at 1 μM and 10 μM
Description: Approximately thirty hours after transfection, the cells were collected and preincubated with coelenterazine h for the functional assay. The ligands in serial dilutions were loaded into 96-well opaque plates. Cells treated with coelenterazine h were injected into each well on an Orion microplate luminometer (Berthold) luminescent plate reader. The luminescence was measured for 20 seconds immediately after the cell injections. Data analyses were performed to determine the accumulated luminescence value for 20 seconds after extraction of blank-well luminescence. A dose-response curve was generated and the EC50 (50% effective concentration) was calculated in Origin 7 (OriginLab).

[1] = EC50 (nM), second set of peptidomimetics
[2] = second set, EC50 relative to proctolin (14.19 nM)
[3] = first set of experiments, EC50 relative to proctolin (0.22 nM)
[4] = first set of experiments, read-out: EC50

Row | Structure (SMILES) | Fold change [3] | EC50 [4] | also measured
1 | CC(=O)N[C@@H](CCCNC(=N)N)C(=O)N[C@@H](Cc1ccc(F)cc1)C(=O)N[C@@H](CC(C)C)C(=O)N1C[C@H](O)C[C@H]1C(=O)N[C@H](C(=O)O)[C@@H](C)O [Ac-2441, Ac-R[Phe(4-F)]L[HyP]T] (Ac-R[Phe(4-F)]L[Hyp]T-OH) | – | – | EC50 [1]: 471 nM; Fold change [2]: 33.20
2 | CC(=O)N[C@@H](CCCNC(=N)N)C(=O)N[C@@H](Cc1ccc(Cl)cc1)C(=O)N[C@@H](CC(C)C)C(=O)N1C[C@H](O)C[C@H]1C(=O)N[C@H](C(=O)O)[C@@H](C)O [Ac-2443, Ac-R[Phe(4-Cl)]L[HyP]T] (Ac-R[Phe(4-Cl)]L[Hyp]T-OH) | – | – | EC50 [1]: 108 nM; Fold change [2]: 7.64
3 | CC(C)C[C@H](NC(=O)[C@H](Cc1ccc(O)cc1)NC(=O)[C@@H](N)CCCNC(=N)N)C(=O)N1CCC[C@H]1C(=O)N[C@@H](C(=O)O)[C@H](C)O [Analog 2326, RYLP[dT]] (H-RYLP[dT]-OH; N-terminus assumed) | 13600.00 | 2990 nM | Agonist activity / potency on the Varroa mite proctolin receptor, in words (in words): inactive agonist
4 | CC(C)C[C@H](NC(=O)[C@H](Cc1ccc(O)cc1)NC(=O)[C@@H](N)CCCNC(=N)N)C(=O)N1CCC[C@@H]1C(=O)N[C@H](C(=O)O)[C@@H](C)O [Analog 2327, RYL[dP]T] (H-RYL[dP]T-OH) | 2496.82 | 549 nM | –
5 | CC(C)C[C@@H](NC(=O)[C@H](Cc1ccc(O)cc1)NC(=O)[C@@H](N)CCCNC(=N)N)C(=O)N1CCC[C@H]1C(=O)N[C@H](C(=O)O)[C@@H](C)O [Analog 2328, RY[dL]PT] (H-RY[dL]PT-OH) | 413.36 | 90.9 nM | –
6 | CC(C)C[C@H](NC(=O)[C@@H](Cc1ccc(O)cc1)NC(=O)[C@@H](N)CCCNC(=N)N)C(=O)N1CCC[C@H]1C(=O)N[C@H](C(=O)O)[C@@H](C)O [Analog 2329, R[dY]LPT] (H-R[dY]LPT-OH) | 672.27 | 148 nM | –
7 | CC(C)C[C@H](NC(=O)[C@H](Cc1ccc(O)cc1)NC(=O)[C@H](N)CCCNC(=N)N)C(=O)N1CCC[C@H]1C(=O)N[C@H](C(=O)O)[C@@H](C)O [Analog 2330, [dR]YLPT] (H-[dR]YLPT-OH; N-terminus assumed) | 25.55 | 5.6 nM and 5.62 nM | Activity at high concentrations compared with proctolin: higher than that of proctolin
8 | CC(C)C[C@H](NC(=O)[C@H](Cc1ccc(O)cc1)NC(=O)[C@@H](N)CCCNC(=N)N)C(=O)N1CCC[C@H]1CC(=O)N[C@H](C(=O)O)[C@@H](C)O [Analog 2331, RYL[β3P]T] (H-RYL[β3hP]T-OH; N-terminus assumed) | 20.00 | 4.4 nM | Activity at high concentrations compared with proctolin: higher than that of proctolin
9 | CC(C)C[C@@H](CC(=O)N1CCC[C@H]1C(=O)N[C@H](C(=O)O)[C@@H](C)O)NC(=O)[C@H](Cc1ccc(O)cc1)NC(=O)[C@@H](N)CCCNC(=N)N [Analog 2332, RY[β3L]PT] (H-RY[β3hL]PT-OH) | 927.27 | 204 nM | –
10 | CC(C)C[C@H](NC(=O)C[C@H](Cc1ccccc1)NC(=O)[C@@H](N)CCCNC(=N)N)C(=O)N1CCC[C@H]1C(=O)N[C@H](C(=O)O)[C@@H](C)O [Analog 2333, R[β3F]LPT] (H-R[β3hF]LPT-OH) | 991.82 | 218 nM | –
11 | CC(C)C[C@H](NC(=O)[C@H](Cc1ccc(O)cc1)NC(=O)[C@@H](N)CCCNC(=N)N)C(=O)NC(C)(C)C(=O)N[C@H](C(=O)O)[C@@H](C)O [Analog 2335, RYL[Aib]T] (H-RYL[Aib]T-OH) | 10.09 | 2.2 nM and 2.22 nM | –
12 | CC(C)C[C@H](NC(=O)[C@@H](Cc1ccc(O)cc1)NC(=O)[C@@H](N)CCCNC(=N)N)C(=O)N1C[C@H](O)C[C@H]1C(=O)N[C@H](C(=O)O)[C@@H](C)O [Analog 2337, R[dY]L[HyP]T] (H-R[dY]L[Hyp]T-OH; N-terminus assumed) | 163.00 | – | Factor by which potency exceeds that of the corresponding analog with only a single replacement at Y2 (2338 vs 2333, 2337 vs 2329): 4; EC50 (EC50 (nM), first set of experiments): 36 nM and 35.9 nM; Efficacy (maximal response) (in words): full efficacy
